According to patent US11447460B2, “Compounds and compositions for treating conditions associated with NLRP activity” (Novartis AG, priority 2016, dated 2022):

system: IL-1β production in PMA-differentiated THP-1 cells; test: IL-1β production in PMA-differentiated THP-1 cells stimulated with gramicidin (hTHP-1 assay, 2% bovine serum; Bioassays 1 and 2); format: cell-based, human; conditions: Homo sapiens, THP-1; hTHP-1 assay containing 2% bovine serum; Table 12, by Example #; read-out: Average IC50 of compounds in hTHP-1 assay
In short: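 PMA-differentiated THP-1 cells in 2% FBS RPMI were pre-treated with compound for 1 h, then given gramicidin 5 μM for 2 h, and supernatants were assayed to give IC50. Protocol 1: PMA 10 μg/ml 24 h, 1×10^6 cells/ml, ELISA, 1% DMSO. Protocol 2: PMA 20 ng/ml 16-18 h, 50,000 cells/well, HTRF, 0.38% DMSO.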

Row | Compound | IC50 [µM]
1 | CC(C)c1cc(F)cc(C(C)C)c1CC(=O)NS(=O)(=O)c1ncc(CO)s1 [Example 91, 2-(4-Fluoro-2,6-diisopropylphenyl)-N-(5-(hydroxymethyl)thiazol-2-ylsulfonyl)acetamide] | 15 to 60
2 | CC(C)(O)c1cnc(S(=O)(=O)NC(=O)Cc2c(C3CC3)cccc2C2CC2)s1 [Example 78, 2-(2,6-dicyclopropylphenyl)-N-(5-(2-hydroxypropan-2-yl)thiazol-2-ylsulfonyl)acetamide] | 5 to 15
3 | CC(C)(O)c1cnc(S(=O)(=O)NC(=O)Cc2c3c(c(Cl)c4c2CCC4)CCC3)s1 [Example 5, 2-(8-Chloro-1,2,3,5,6,7-hexahydros-indacen-4-yl)-N-(5-(2-hydroxypropan-2-yl)thiazol-2-ylsulfonyl)acetamide] | 15 to 60
4 | CC(C)c1cnc(S(=O)(=O)NC(=O)Cc2c(C(C)C)cc(F)cc2C(C)C)s1 [Example 84, 2-(4-fluoro-2,6-diisopropylphenyl)-N-(5-isopropylthiazol-2-ylsulfonyl)acetamide] | 5 to 15
5 | CC(C)c1cc(F)cc(C(C)C)c1CC(=O)NS(=O)(=O)c1nc(C(C)(C)O)cs1 [Example 81, 2-(4-fluoro-2,6-diisopropylphenyl)-N-(4-(2-hydroxypropan-2-yl)thiazol-2-ylsulfonyl)acetamide] | 15 to 60
6 | CC(C)c1cc(F)cc(C(C)C)c1CC(=O)NS(=O)(=O)c1ccn(C(C)C)n1 [Example 62, 2-(4-fluoro-2,6-diisopropylphenyl)-N-(1-isopropyl-1H-pyrazol-3-ylsulfonyl)acetamide] | 5 to 15
7 | CC(C)c1cccc(C(C)C)c1CC(=O)NS(=O)(=O)c1cc(C(C)(C)O)n(C)n1 [Example 66, 2-(2,6-diisopropylphenyl)-N-(5-(2-hydroxypropan-2-yl)-1-methyl-1H-pyrazol-3-ylsulfonyl)acetamide] | 15 to 60
8 | CC(C)c1cc(F)cc(C(C)C)c1CC(=O)NS(=O)(=O)c1ccc(C(C)(C)O)c(CO)c1 [Example 94, 2-(4-fluoro-2,6-diisopropylphenyl)-N-(3-(hydroxymethyl)-4-(2-hydroxypropan-2-yl)phenylsulfonyl)acetamide] | 1 to 5
9 | CC(C)c1cc(F)cc(C(C)C)c1CC(=O)NS(=O)(=O)c1cc(C2(O)CC2)cs1 [Example 15, 2-(4-fluoro-2,6-diisopropylphenyl)-N-(4-(1-hydroxycyclopropyl)thiophen-2-ylsulfonyl)acetamide] | 1 to 5
10 | CC(C)c1cc(F)cc(C(C)C)c1CC(=O)NS(=O)(=O)c1cc(C(C)(C)O)ccc1F [Example 52, 2-(4-fluoro-2,6-diisopropylphenyl)-N-(2-fluoro-5-(2-hydroxypropan-2-yl)phenylsulfonyl)acetamide] | 1 to 5
11 | CC(C)c1ccc(F)c(C(C)C)c1CC(=O)NS(=O)(=O)c1ncc(C(C)(C)O)s1 [Example 71, 2-(3-fluoro-2,6-diisopropylphenyl)-N-(5-(2-hydroxypropan-2-yl)thiazol-2-ylsulfonyl)acetamide] | 1 to 5
12 | CC(C)c1cccc(C2CC2)c1CC(=O)NS(=O)(=O)c1ncc(C(C)(C)O)s1 [Example 80, 2-(2-cyclopropyl-6-isopropylphenyl)-N-(5-(2-hydroxypropan-2-yl)thiazol-2-ylsulfonyl)acetamide] | 5 to 15

More lines, now with the values ahead:

Row | IC50 [µM] | Compound
13 | 1 to 5 | CC(C)c1cc(C#N)cc(C(C)C)c1CC(=O)NS(=O)(=O)c1ncc(C(C)O)s1 (centres unmarked) [Example 93, 2-(4-cyano-2,6-diisopropylphenyl)-N-(5-(1-hydroxyethyl)thiazol-2-ylsulfonyl)acetamide]
14 | < 1 | CC(C)c1c(F)c(Cl)c(F)c(C(C)C)c1CC(=O)NS(=O)(=O)c1cc(C(C)(C)O)co1 [Example 20, 2-(4-chloro-3,5-difluoro-2,6-diisopropylphenyl)-N-(4-(2-hydroxypropan-2-yl)furan-2-ylsulfonyl)acetamide]
15 | < 1 | CC(C)c1cc(C#N)cc(C(C)C)c1CC(=O)NS(=O)(=O)c1cc(C(C)(C)O)cs1 [Example 10, 2-(4-cyano-2,6-diisopropylphenyl)-N-(4-(2-hydroxypropan-2-yl)thiophen-2-ylsulfonyl)acetamide]
16 | 1 to 5 | CC(C)c1cc(F)cc(C(C)C)c1CC(=O)NS(=O)(=O)c1cc(C(C)(C)O)n(C)n1 [Example 67, 2-(4-fluoro-2,6-diisopropylphenyl)-N-(5-(2-hydroxypropan-2-yl)-1-methyl-1H-pyrazol-3-ylsulfonyl)acetamide]
17 | 1 to 5 | CC(C)c1cc(C#N)cc(C(C)C)c1CC(=O)NS(=O)(=O)c1ccc(C(C)(C)O)cc1 [Example 35, 2-(4-cyano-2,6-diisopropylphenyl)-N-(4-(2-hydroxypropan-2-yl)phenylsulfonyl)acetamide]
18 | 1 to 5 | CC(C)c1ccc(F)c(C(C)C)c1CC(=O)NS(=O)(=O)c1ccc(C(C)(C)O)cc1 [Example 43, 2-(3-fluoro-2,6-diisopropylphenyl)-N-(4-(2-hydroxypropan-2-yl)phenylsulfonyl)acetamide]
19 | < 1 | CC(C)c1cc(C#N)cc(C(C)C)c1CC(=O)NS(=O)(=O)c1cc(C2(O)CC2)cs1 [Example 16, 2-(4-cyano-2,6-diisopropylphenyl)-N-(4-(1-hydroxycyclopropyl)thiophen-2-ylsulfonyl)acetamide]
20 | 1 to 5 | CC(C)c1cc(C(F)(F)F)cc(C(C)C)c1CC(=O)NS(=O)(=O)c1ncc(C(C)(C)O)s1 [Example 72, 2-(2,6-diisopropyl-4-(trifluoromethyl)phenyl)-N-(5-(2-hydroxypropan-2-yl)thiazol-2-ylsulfonyl)acetamide]

same assay, conditions: Homo sapiens, THP-1; hTHP-1 assay containing 2% bovine serum; Table 13, by Final Target Number; read-out: Average IC50 of compounds in hTHP-1 assay

Row | IC50 [µM] | Compound
21 | 5 to 15 | CC(C)c1cc(F)cc(C(C)C)c1CC(=O)NS(=O)(=O)c1cccc(CN(C)C)c1 [Compound 215]
22 | 5 to 15 | CC(C)c1cc(F)cc(C(C)C)c1CC(=O)NS(=O)(=O)c1ncc(CN(C)C)s1 [Compound 213]
23 | < 1 | CC(C)c1cc(F)cc(C(C)C)c1CC(=O)NS(=O)(=O)c1ccc(CN(C)C)cc1 [Compound 214]
